Measurements: ChEMBL document CHEMBL1201862, “PubChem BioAssay data set” (2004)
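Cultured in 96-well plates, cells were exposed to test compound for 48 hours across five concentrations. GI50: concentration for 50% inhibition of growth.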 Active and inactive are the calls of the source. Cut-off read from the data, not from the text of the source: active = GI50 up to about 1.1 µM and inactive = higher.

What was measured:
Test in all cases: growth of human tumour cells (NCI), 48 h
[1] = test system: 786-0
[2] = test system: KM-20L2
[3] = test system: HOP-18
[4] = test system: LXFL 529
[5] = test system: DMS-114
[6] = test system: DMS-273
[7] = test system: RXF 631
[8] = test system: DLD-1
[9] = test system: M19-MEL

Measured: GI50

CSc1ccccc1P(c1ccccc1SC)c1ccccc1SC
inactive: [1] > 100 µM

Cc1cc(C)c(-n2[nH]c(=O)n(C)c2=O)c(C)c1
inactive: [1] > 100 µM

CCOC(=O)C(=O)Nc1c(CC)cccc1C(C)CC (stereo unspecified)
inactive: [2] > 100 µM | [3] > 100 µM | [4] > 100 µM | [5] > 100 µM | [6] > 100 µM | [7] > 100 µM | [8] > 100 µM | [9] > 100 µM

O=C1CC2CC3OC3[C@H]3c4cc5c(cc4C(=O)N1C23)OCO5 (stereo partly specified)
inactive: [2] > 100 µM | [4] > 100 µM | [5] > 100 µM | [6] > 100 µM | [9] > 100 µM

CC(C)(C)N(Cc1ccoc1)C(=O)/C=C\[S+]([O-])c1ccccc1 (stereo unspecified)
inactive: [1] 19.8 µM

NCc1ccccc1-c1c2nc(c(-c3ccccc3CN)c3ccc([nH]3)c(-c3ccccc3CN)c3nc(c(-c4ccccc4CN)c4ccc1[nH]4)C=C3)C=C2
inactive: [2] 19.7 µM | [3] 1.18 µM | [4] 22.1 µM | [6] 7.36 µM | [9] 22.2 µM

COc1c(OC)c(OC)c2c(c1OC)c(=O)c1ccccc1n2C [MELICOPICINE]
inactive: [1] > 100 µM

CCCCCCCCCCCCCCCCCCN(C)CC(COP(=O)([O-])OCC[N+](C)(C)C)OC (stereo unspecified)
inactive: [2] 1.91 µM | [3] 17.3 µM | [4] 8.67 µM | [5] 6.76 µM | [6] 1.95 µM | [1] 6.89 µM | [7] 16.2 µM | [8] 5.14 µM | [9] 4.21 µM
